Test results taken from US4416884A, “Piperazinylbenzoheterocyclic compounds” (Otsuka Pharmaceutical Co., Ltd., priority 1978, dated 1983).
Read-outs that look alike come from different tables or passages of the source.

Legend:
Assay type in all cases: cell-based
[1] = test system: Corinebacterium diphteriae; assay: antimicrobial activity, serial dilution method on agar plate
Procedure, shortened: (§1)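 Reported figure is the lowest compound level (mcg/ml) inhibiting growth on Heart Infusion agar in a serial plate dilution. Suspensions of 1×10^8 and 1×10^6 cells/ml served as inocula.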

[2] = test system: Enterobacter aerogenes IFO 12979; assay: as above; conditions: Klebsiella aerogenes
Procedure, shortened: as §1

[3] = test system: Pseudomonas aeruginosa ATCC 10145; assay: as above
Procedure, shortened: as §1

[4] = test system: Pseudomonas aeruginosa NCTC 10490; assay: as above
Procedure, shortened: as §1

[5] = test system: Staphylococcus aureus FDA 209 P; assay: as above
Procedure, shortened: as §1

[6] = test system: Streptococcus pneumoniae Type II; assay: as above
Procedure, shortened: as §1

[7] = test system: Yersinia enterocolitica 0-5; assay: as above
[8] = test system: Aeromonas hydrophila IFO 12658; assay: antimicrobial activity on bacteria which cause infectious diseases in fish
Description: (§2) The antimicrobial activity of the following test compounds on various test organisms listed below was determined by the serial dilution method on agar plate (Heart Infusion agar produced by Difco Co.) (see CHEMOTHERAPY 22, pp. 1126-1128 (1974)), and the minimum inhibitory concentrations (mcg/ml) obtained are shown in Table 1 below.
(§3) A sample of each test organism was prepared so that the population of the organism was 1×10^8 cells/ml (O.D. 660 mμ=0.07 to 0.16) and 1×10^6 cells/ml (which was obtained by diluting the above 1×10^8 cells/ml preparation).
(§4) In the same manner as above, the antimicrobial activity of the following compounds on various test organisms which cause infectious diseases in fish was determined.

[9] = test system: Aeromonas hydrophila IFO 12981; assay: as above
Description: as §2, §3, §4

[10] = test system: Aeromonas salmonicida IFO 12659; assay: as above
Description: as §2, §3, §4

[11] = test system: Aeromonas salmonicida IFO 12718; assay: as above
Description: as §2, §3, §4

[12] = test system: Pseudomonas fluorescens IFO 12180; assay: as above
Description: as §2, §3, §4

[13] = test system: Pseudomonas fluorescens IFO 12568; assay: as above
Description: as §2, §3, §4

[14] = test system: Vibrio anguillarum IFO 12710; assay: as above
Description: as §2, §3, §4

[15] = test system: Vibrio anguillarum IFO 13266; assay: as above
Description: as §2, §3, §4

[16] = read-out: Minimum Inhibitory Concentration, inoculum 1 × 10^6 cells/ml
[17] = read-out: Minimum Inhibitory Concentration, inoculum 1 × 10^8 cells/ml

Measured: MIC

CCn1cc(C(=O)O)c(=O)c2ccc(C)nc21 [E]
0.2 µg/mL: [9]; IFO12981, inoculum 10^6, read-out: Minimum Inhibitory Concentration
3.1 µg/mL: [2]; IFO12979, read-out: Minimum Inhibitory Concentration, inoculum 1 × 10^6 cells/ml | [7]; Yersinia enterocolitica, 05, read-out: Minimum Inhibitory Concentration, inoculum 1 × 10^8 cells/ml
0.4 µg/mL: [9]; IFO12981, inoculum 10^8, read-out: Minimum Inhibitory Concentration
1.6 µg/mL: [7]; Yersinia enterocolitica, 05, read-out: Minimum Inhibitory Concentration, inoculum 1 × 10^6 cells/ml | [14]; IFO12710, inoculum 10^8, read-out: Minimum Inhibitory Concentration | [15]; IFO13266, inoculum 10^8, read-out: Minimum Inhibitory Concentration
50 µg/mL: [5]; FDA209, read-out: Minimum Inhibitory Concentration, inoculum 1 × 10^6 cells/ml | [5]; FDA209, read-out: Minimum Inhibitory Concentration, inoculum 1 × 10^8 cells/ml | [12]; IFO12180, inoculum 10^6, read-out: Minimum Inhibitory Concentration | [13]; IFO12568, inoculum 10^6, read-out: Minimum Inhibitory Concentration
> 50 µg/mL: [12]; IFO12180, inoculum 10^8, read-out: Minimum Inhibitory Concentration | [13]; IFO12568, inoculum 10^8, read-out: Minimum Inhibitory Concentration
> 100 µg/mL: [1]; [16] | [1]; [17] | [3]; ATCC10145, read-out: Minimum Inhibitory Concentration, inoculum 1 × 10^6 cells/ml | [3]; ATCC10145, read-out: Minimum Inhibitory Concentration, inoculum 1 × 10^8 cells/ml | [4]; NCTC10490, read-out: Minimum Inhibitory Concentration, inoculum 1 × 10^6 cells/ml | [4]; NCTC10490, read-out: Minimum Inhibitory Concentration, inoculum 1 × 10^8 cells/ml | [6]; [16] | [6]; [17]
0.8 µg/mL: [8]; IFO12658, inoculum 10^6, read-out: Minimum Inhibitory Concentration | [8]; IFO12658, inoculum 10^8, read-out: Minimum Inhibitory Concentration | [10]; IFO12659, inoculum 10^6, read-out: Minimum Inhibitory Concentration | [10]; IFO12659, inoculum 10^8, read-out: Minimum Inhibitory Concentration | [11]; IFO12718, inoculum 10^6, read-out: Minimum Inhibitory Concentration | [11]; IFO12718, inoculum 10^8, read-out: Minimum Inhibitory Concentration | [14]; IFO12710, inoculum 10^6, read-out: Minimum Inhibitory Concentration | [15]; IFO13266, inoculum 10^6, read-out: Minimum Inhibitory Concentration
6.3 µg/mL: [2]; IFO12979, read-out: Minimum Inhibitory Concentration, inoculum 1 × 10^8 cells/ml
